Results published in US20240199647A1, “ANTI-VIRAL COMPOUNDS” (Aligos Therapeutics, Inc., priority 2022, published 2024).

How the values were obtained:
[1] = in vitro; settings: human
[2] = target: SARS-Cov-2 3CLpro (Severe acute respiratory syndrome coronavirus 2, UniProt P0DTD1); assay: biochemical; settings: Table A, class symbols, read-out: SARS-Cov-2 (IC50)
[3] = tested on: human beta-coronavirus OC43; assay: OC43 Coronavirus Assay in HeLa cells (antiviral, cytopathic effect, cell-titer-glo); format: cell-based; settings: Betacoronavirus 1, OC43, HeLa, Table B; OC43 coronavirus in HeLa cells, class symbols; read-out: EC50
[4] = tested on: SARS-CoV-2 B.1.1.7 lineage; assay: microbe, parasite or virus in culture; format: cell-based; settings: Severe acute respiratory syndrome coronavirus 2; Table C; SARS-CoV-2 B.1.1.7 in A549-dual_ACE2_TMPRSS2 cells, class symbols; read-out: A549-dual_ACE2_TMPRSS2 (EC50)
[5] = Cytotoxicity in HeLa cells without addition of OC43 virus (in parallel); settings: human, HeLa cells, without OC43 virus

| SMILES | CC50 [1] [nM] | IC50 [2] [nM] | EC50 [3] [nM] | EC50 [4] [nM] | CC50 at 6 days [5] [µM] |
| --- | --- | --- | --- | --- | --- |
| CN(C(=O)[C@H](CC1CC1)NS(=O)(=O)C1CC1)[C@@H](CC1CC1)C(=O)N1C[C@@]2(C[C@H]1C#N)Oc1cccnc1NC2=O [Compound 178] | > 1000 | < 20 | < 100 | 100 to 1000 | > 10 |
| CN(C(=O)[C@@H](NC(=O)C(F)(F)F)C1CC1)[C@@H](CC1CC1)C(=O)N1C[C@@]2(C[C@H]1C#N)Oc1cccnc1NC2=O [Compound 179] | > 1000 | < 20 | < 100 | 100 to 1000 | > 10 |
| C[C@H](NC(=O)C(F)(F)F)C(=O)N(C)[C@@H](Cc1ccc(F)cc1)C(=O)N1C[C@@]2(C[C@H]1C#N)Oc1cccnc1NC2=O [Compound 181] | > 1000 | < 20 | 1000 to 10000 | 100 to 1000 | > 10 |
| CN(C(=O)[C@H](CC1CC1)NC(=O)C(F)(F)F)[C@@H](CC1CC1)C(=O)N1C[C@@]2(C[C@H]1C#N)Oc1ccccc1NC2=O [Compound 182] | > 1000 | < 20 | < 100 | < 100 | > 10 |
| C[C@H](NC(=O)C(F)(F)F)C(=O)N(C)[C@@H](CC1(C)CC1)C(=O)N1C[C@@]2(C[C@H]1C#N)Oc1cccnc1NC2=O [Compound 183] | > 1000 | < 20 | < 100 | 100 to 1000 | > 10 |
| CN(C(=O)[C@H](CC1CC1)NC(=O)C(F)(F)C(F)(F)F)[C@@H](CC1CC1)C(=O)N1C[C@@]2(C[C@H]1C#N)Oc1ncccc1NC2=O [Compound 184] | > 1000 | < 20 | < 100 | < 100 | > 10 |
| CN(C(=O)[C@H](CC1CC1)NC(=O)C1(F)CC1)[C@@H](CC1CC1)C(=O)N1C[C@@]2(C[C@H]1C#N)Oc1ncccc1NC2=O [Compound 185] | > 1000 | < 20 | < 100 | 100 to 1000 | > 10 |
| CN(C(=O)[C@H](CC1CC(F)(F)C1)NC(=O)C(F)(F)F)[C@@H](CC1CC1)C(=O)N1C[C@@]2(C[C@H]1C#N)Oc1cccnc1NC2=O [Compound 187] | > 1000 | < 20 | < 100 | 100 to 1000 | > 10 |
| CN(C(=O)[C@H](CC(C)(C)C)NC(=O)C(F)(F)F)[C@@H](CC1CC1)C(=O)N1C[C@@]2(C[C@H]1C#N)Oc1cccnc1NC2=O [Compound 188] | > 1000 | < 20 | < 100 | < 100 | > 10 |
| CN(C(=O)[C@H](CC(F)(F)F)NC(=O)C(F)(F)F)[C@@H](CC1CC1)C(=O)N1C[C@@]2(C[C@H]1C#N)Oc1cccnc1NC2=O [Compound 189] | > 1000 | 20 to 200 | 100 to 1000 | 100 to 1000 | > 10 |
| CN(C(=O)[C@H](COC(C)(C)C)NC(=O)C(F)(F)F)[C@@H](CC1CC1)C(=O)N1C[C@@]2(C[C@H]1C#N)Oc1cccnc1NC2=O [Compound 190] | > 1000 | < 20 | < 100 | 100 to 1000 | > 10 |
| CN(C(=O)[C@H](COCc1ccccc1)NC(=O)C(F)(F)F)[C@@H](CC1CC1)C(=O)N1C[C@@]2(C[C@H]1C#N)Oc1cccnc1NC2=O [Compound 191] | > 1000 | < 20 | < 100 | 100 to 1000 | > 10 |
| C[C@H](OCc1ccccc1)[C@H](NC(=O)C(F)(F)F)C(=O)N(C)[C@@H](CC1CC1)C(=O)N1C[C@@]2(C[C@H]1C#N)Oc1cccnc1NC2=O [Compound 192] | > 1000 | 20 to 200 | 100 to 1000 | 100 to 1000 | > 10 |
| C[C@H](c1ccccc1)[C@H](NC(=O)C(F)(F)F)C(=O)N(C)[C@@H](CC1CC1)C(=O)N1C[C@@]2(C[C@H]1C#N)Oc1cccnc1NC2=O [Compound 193] | > 1000 | 20 to 200 | 100 to 1000 | 100 to 1000 | > 10 |
